# Measured values taken from ChEMBL document CHEMBL1201862, “PubChem BioAssay data set” (2004).
# Active and inactive are the calls of the source.
# How the values were obtained:
# [1] = biological target: Cytochrome P450 2C19 (Homo sapiens, UniProt P33261); experiment: Cytochrome panel assay with activity outcomes. Panel member name: p450-cyp2c19 Compounds with AC50 equal or less than 10 uM are considered active; type: functional
# [2] = biological target: Cytochrome P450 2C9 (Homo sapiens, UniProt P11712)
# Cytochrome P450 2C9, sequence (P11712 whole entry): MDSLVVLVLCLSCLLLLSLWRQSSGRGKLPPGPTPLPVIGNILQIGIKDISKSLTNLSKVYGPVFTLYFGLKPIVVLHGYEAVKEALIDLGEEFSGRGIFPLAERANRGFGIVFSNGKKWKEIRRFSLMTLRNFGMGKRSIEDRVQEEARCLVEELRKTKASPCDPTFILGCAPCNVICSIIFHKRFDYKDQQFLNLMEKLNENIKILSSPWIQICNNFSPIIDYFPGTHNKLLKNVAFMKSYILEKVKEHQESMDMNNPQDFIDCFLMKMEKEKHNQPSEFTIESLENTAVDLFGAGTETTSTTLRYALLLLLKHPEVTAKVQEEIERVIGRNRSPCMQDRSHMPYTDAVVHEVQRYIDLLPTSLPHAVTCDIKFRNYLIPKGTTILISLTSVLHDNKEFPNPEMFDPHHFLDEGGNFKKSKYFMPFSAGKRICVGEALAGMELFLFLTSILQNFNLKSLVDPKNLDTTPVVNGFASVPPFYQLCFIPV
# [3] = growth suppression of PTEN-null colon cells, dose response, cell-based, HCT116 PTEN knockout (AID 1047); type: functional;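 also: HCT116 colon tumor cells with PTEN knocked out; cells exposed to compound for 60 hours before readout; potency for loss of cell viability measured by luminescence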
# [4] = growth suppression of beta-catenin-knockout colon cells, dose response, cell-based, HCT116, human colon tumor (AID 1045); type: functional;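 also: HCT116 colon tumor cells with beta catenin knocked out; cells exposed to compound for 60 hours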
# [5] = Luminescence Cell-Based Dose Confirmation HTS to Identify Inhibitors of Platelet Dense Granule Release. [Related pubchem assays: 1663 (Primary HTS), 1678 (Summary of Project)]; type: functional
# [6] = biological target: T1, Calpain-2 catalytic subunit (Sus scrofa, UniProt P43367); experiment: pig calpain II inhibitor potency, dose response, biochemical, fluorogenic peptide substrate (AID 1420); type: functional
# T1 sequence (P43367 whole entry): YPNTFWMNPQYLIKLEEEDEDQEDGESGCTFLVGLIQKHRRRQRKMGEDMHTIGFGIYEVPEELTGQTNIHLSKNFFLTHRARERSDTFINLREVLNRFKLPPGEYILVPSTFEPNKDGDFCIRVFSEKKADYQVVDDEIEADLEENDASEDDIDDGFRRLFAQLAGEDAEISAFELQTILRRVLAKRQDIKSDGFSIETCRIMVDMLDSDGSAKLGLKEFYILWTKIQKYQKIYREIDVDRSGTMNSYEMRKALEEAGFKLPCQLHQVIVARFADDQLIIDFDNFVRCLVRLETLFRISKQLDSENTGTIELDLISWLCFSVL
# [7] = biological target: Luciferin 4-monooxygenase (Photinus pyralis, UniProt P08659); experiment: firefly luciferase enzyme inhibitors, dose response, biochemical, luminescence (AID 1891)
# Luciferin 4-monooxygenase, sequence (P08659 whole entry): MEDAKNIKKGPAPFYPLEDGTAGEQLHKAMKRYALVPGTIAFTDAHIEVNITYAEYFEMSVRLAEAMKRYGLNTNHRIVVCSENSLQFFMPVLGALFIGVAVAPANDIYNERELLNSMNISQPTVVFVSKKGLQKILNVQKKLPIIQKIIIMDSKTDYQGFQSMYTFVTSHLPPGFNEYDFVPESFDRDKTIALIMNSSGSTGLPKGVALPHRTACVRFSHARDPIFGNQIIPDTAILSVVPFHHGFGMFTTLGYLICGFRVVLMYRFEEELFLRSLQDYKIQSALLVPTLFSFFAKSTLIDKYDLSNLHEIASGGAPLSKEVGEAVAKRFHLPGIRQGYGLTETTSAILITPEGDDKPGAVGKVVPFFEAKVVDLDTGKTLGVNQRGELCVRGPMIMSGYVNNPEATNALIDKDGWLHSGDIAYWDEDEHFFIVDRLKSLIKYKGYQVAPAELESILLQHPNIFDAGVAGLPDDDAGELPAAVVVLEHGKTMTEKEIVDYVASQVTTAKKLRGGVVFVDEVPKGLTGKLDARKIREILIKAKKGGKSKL
# [8] = C. albicans growth with fluconazole, confirmation, fluorescence, retest (AID 2467); type: functional, cell-based
# [9] = NIH-3T3 fibroblast cytotoxicity, dose response, cytotoxicity control, cell-based, fluorescence, Alamar Blue, secondary assay (AID 2327); type: functional;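 also: NIH-3T3 mouse fibroblasts cultured with fluconazole at 8 µg/mL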
# [10] = tested on: BJ; experiment: cytotoxicity toward BJ-TERT-LT-ST fibroblasts, dose response, cell-based, RAS-independent, luminescence (AID 1935); type: functional; details: Homo sapiens;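 also: BJ fibroblasts immortalized with TERT plus LT and ST oncogenes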
# [11] = tested on: INS1; experiment: beta cell apoptosis inhibitors, cytokine rescue, dose response, luminescence, retest (AID 449756); type: functional, cell-based; details: Rattus norvegicus;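 also: cell death triggered by IL-1 beta plus TNF-alpha plus IFN-gamma mixture; protective hits raise ATP signal compared with cytokine alone wells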
# [12] = tested on: BJ; experiment: cells; type: functional, cell-based; details: Homo sapiens
# [13] = biological target: T2, Ubiquitin-conjugating enzyme E2 N (Homo sapiens, UniProt P61088); type: functional;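 also: Dose-response confirmation in a TR-FRET assay detecting UBC13-driven polyubiquitin chain formation, inhibition measured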
# T2 sequence (P61088 whole entry): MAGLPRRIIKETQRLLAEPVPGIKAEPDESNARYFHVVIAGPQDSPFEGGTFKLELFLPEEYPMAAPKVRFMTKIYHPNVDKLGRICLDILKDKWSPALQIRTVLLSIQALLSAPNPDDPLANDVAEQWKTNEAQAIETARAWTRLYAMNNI
# [14] = cytotoxicity toward DRD oncogenic fibroblasts, dose response, cell-based, non-viral oncogenic, luminescence (AID 1934); type: functional; details: Homo sapiens
# [15] = tested on: BJ; experiment: cytotoxicity toward BJ-TERT fibroblasts, dose response, cell-based, RAS-independent, luminescence (AID 1933); type: functional; details: Homo sapiens
# [16] = biological target: T3, Replicative DNA helicase DnaB (Mycobacterium tuberculosis, UniProt P9WMR3); experiment: DnaB intein splicing inhibitors, dose response, biochemical, cell-free fluorescence (AID 449749); type: functional
# T3 sequence (P9WMR3 whole entry): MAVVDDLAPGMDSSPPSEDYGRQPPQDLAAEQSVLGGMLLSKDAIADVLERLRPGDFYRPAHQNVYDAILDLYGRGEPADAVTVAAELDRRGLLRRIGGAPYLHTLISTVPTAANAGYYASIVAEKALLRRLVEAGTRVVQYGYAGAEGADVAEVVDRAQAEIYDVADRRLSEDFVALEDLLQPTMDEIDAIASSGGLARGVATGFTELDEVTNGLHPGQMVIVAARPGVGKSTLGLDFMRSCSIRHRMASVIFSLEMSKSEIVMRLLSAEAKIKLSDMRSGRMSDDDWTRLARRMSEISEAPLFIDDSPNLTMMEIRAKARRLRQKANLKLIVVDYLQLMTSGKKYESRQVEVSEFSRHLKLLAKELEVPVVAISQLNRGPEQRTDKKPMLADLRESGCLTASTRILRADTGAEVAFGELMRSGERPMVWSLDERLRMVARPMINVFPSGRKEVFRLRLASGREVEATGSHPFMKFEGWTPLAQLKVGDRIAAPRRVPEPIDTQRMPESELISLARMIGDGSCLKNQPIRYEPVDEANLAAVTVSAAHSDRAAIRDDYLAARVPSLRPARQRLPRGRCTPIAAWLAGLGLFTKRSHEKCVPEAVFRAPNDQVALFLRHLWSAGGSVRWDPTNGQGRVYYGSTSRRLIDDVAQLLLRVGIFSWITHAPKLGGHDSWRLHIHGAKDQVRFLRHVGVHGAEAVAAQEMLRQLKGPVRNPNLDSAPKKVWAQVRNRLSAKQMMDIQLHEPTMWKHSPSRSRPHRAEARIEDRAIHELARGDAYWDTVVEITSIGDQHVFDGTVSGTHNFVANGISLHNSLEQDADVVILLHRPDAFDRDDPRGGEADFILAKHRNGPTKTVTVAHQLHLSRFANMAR
# [17] = biological target: Cytochrome P450 2D6 (Homo sapiens, UniProt P10635);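 also: CYP2D6 member of a cytochrome P450 panel assay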
# Cytochrome P450 2D6, sequence (P10635 whole entry): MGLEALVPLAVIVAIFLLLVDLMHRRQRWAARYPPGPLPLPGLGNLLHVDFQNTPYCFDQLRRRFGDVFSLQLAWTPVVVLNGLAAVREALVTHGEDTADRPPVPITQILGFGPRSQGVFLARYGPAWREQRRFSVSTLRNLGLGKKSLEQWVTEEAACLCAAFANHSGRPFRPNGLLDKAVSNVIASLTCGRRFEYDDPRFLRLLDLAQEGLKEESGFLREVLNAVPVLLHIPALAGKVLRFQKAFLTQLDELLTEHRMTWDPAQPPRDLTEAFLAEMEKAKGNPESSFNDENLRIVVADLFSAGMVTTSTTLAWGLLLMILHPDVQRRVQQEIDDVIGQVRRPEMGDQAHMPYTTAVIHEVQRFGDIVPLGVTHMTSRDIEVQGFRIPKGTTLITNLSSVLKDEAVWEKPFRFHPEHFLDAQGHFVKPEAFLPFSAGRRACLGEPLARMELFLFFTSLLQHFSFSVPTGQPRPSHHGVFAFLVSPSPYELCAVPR
# [18] = biological target: T4, Protein RecA (Mycobacterium tuberculosis, UniProt P9WHJ3); experiment: Fluorescence Cell-Free Homogeneous Dose Retest to Identify Inhibitors of RecA-Intein Splicing Activity. [Related pubchem assays (depositor defined):AID2097, AID2223, AID489010, AID492950]; type: functional
# T4 sequence (P9WHJ3 whole entry): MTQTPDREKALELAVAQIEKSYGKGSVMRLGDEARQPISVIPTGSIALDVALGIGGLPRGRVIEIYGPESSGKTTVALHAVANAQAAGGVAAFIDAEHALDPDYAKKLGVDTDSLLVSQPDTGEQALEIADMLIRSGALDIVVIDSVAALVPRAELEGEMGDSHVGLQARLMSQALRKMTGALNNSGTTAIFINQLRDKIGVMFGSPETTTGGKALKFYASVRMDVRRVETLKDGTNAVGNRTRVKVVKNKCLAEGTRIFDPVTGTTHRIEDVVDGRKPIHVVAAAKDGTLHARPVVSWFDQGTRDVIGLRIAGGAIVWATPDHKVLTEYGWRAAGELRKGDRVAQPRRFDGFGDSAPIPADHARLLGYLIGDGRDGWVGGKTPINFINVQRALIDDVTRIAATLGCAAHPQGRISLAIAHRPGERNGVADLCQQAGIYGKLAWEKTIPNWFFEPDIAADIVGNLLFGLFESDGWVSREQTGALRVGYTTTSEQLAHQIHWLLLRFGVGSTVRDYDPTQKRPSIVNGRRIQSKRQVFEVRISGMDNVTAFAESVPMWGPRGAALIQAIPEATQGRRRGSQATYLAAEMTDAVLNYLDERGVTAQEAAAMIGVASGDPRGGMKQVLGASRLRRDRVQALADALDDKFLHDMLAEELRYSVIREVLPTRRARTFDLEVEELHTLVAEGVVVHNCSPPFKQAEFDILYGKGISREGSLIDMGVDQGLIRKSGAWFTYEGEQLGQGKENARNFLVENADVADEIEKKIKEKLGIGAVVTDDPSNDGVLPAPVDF
# [19] = biological target: Nonstructural protein 1 (Influenza A virus, UniProt Q194T2); type: functional, Influenza A virus (A/California/07/2009(H1N1))
# Nonstructural protein 1, sequence (Q194T2 whole entry): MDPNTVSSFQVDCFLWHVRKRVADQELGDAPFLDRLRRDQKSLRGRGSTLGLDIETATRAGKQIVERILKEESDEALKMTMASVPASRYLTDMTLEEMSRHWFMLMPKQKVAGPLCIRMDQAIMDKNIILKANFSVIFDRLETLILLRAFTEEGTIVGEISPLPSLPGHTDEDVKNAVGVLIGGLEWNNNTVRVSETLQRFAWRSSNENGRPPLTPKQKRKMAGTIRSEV
# Cytochrome P450 2C19, sequence (P33261 whole entry): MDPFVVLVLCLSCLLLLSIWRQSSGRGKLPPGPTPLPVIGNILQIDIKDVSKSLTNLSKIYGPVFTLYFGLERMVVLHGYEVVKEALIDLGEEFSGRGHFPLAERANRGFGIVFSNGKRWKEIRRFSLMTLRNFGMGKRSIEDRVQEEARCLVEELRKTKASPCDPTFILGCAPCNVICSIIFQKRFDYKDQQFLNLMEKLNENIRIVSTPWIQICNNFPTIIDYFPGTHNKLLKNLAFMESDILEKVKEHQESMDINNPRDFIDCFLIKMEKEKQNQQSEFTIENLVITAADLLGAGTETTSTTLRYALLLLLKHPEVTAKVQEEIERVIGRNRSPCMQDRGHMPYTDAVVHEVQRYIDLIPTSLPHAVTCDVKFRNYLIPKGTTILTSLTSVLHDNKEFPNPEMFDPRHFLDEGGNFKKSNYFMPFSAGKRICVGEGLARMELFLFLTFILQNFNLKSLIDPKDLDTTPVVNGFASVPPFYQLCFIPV
smiles,measurement,setting,value
CCCCN(C)CCCNC(=O)C[S+]([O-])Cc1nc(-c2ccc(OC)c(OC)c2)oc1C (stereo not drawn),AC50,[1],inconclusive
same,AC50,[2],inconclusive
CC(=O)Oc1ccc2ccccc2c1C(NC(=O)Cc1ccccc1)c1ccccc1Cl (stereo not drawn),EC50,[3],22.4 µM (active)
same,EC50,[4],27.7 µM (active)
O=C(Nc1cnn(Cc2ccc(F)cc2)c1)C(c1ccccc1)c1ccccc1,EC50,[5],18.2 µM (active)
same,IC50,[6],9.63 µM (not active)
same,EC50,[7],49.5 µM (active)
COc1ccc(/C=C2\N=C(SC)NC2=O)cc1,EC50,[8],> 38 µM (not active)
same,EC50,[9],> 150 µM (inactive)
CN(C)CCCn1cnc2c(c1=N)C(c1ccccc1)c1ccc3ccccc3c1O2 (stereo not drawn),EC50,[10],4.25 µM (active)
same,AC50,[11],6.49 µM (active)
same,EC50,[12],8.21 µM (active)
same,IC50,[13],> 20 µM (inactive)
same,EC50,[14],5.25 µM (active)
same,EC50,[15],5.45 µM (inconclusive)
CCOC(=O)c1oc2nc(CC(C)C)c3c(c2c1N)CCC3,AC50,[16],91.7 µM (active)
same,AC50,[17],25.1 µM (inconclusive)
same,AC50,[2],inconclusive
same,EC50,[18],> 380 µM (inactive)
COc1cc2ccccc2cc1C(=O)N(CCN(C)C)c1nc2ccc(Br)cc2s1,EC50,[8],> 38 µM (not active)
same,EC50,[9],101 µM (active)
CCCCn1cc[n+](C2=C([N-]S(=O)(=O)c3ccccc3)C(=O)c3ccccc3C2=O)c1,EC50,[3],5.34 µM (active)
same,EC50,[4],5.73 µM (active)
Cc1ccccc1N=C(S)NCc1ccc2[nH]c3c(c2c1)CCCC3,IC50,[19],> 100 µM (active)
O=C(N1CCN(c2ccccn2)CC1)N1c2ccccc2Sc2ccccc21,EC50,[10],0.979 µM (inconclusive)
same,IC50,[6],4.55 µM (not active)
same,EC50,[12],53.6 µM (inconclusive)
same,EC50,[14],0.523 µM (active)
same,EC50,[15],0.62 µM (active)
CCOC(=O)C1(Cc2cccc(OC)c2)CCN(Cc2cccc(OCC)c2O)CC1,IC50,[6],8.3 µM (not active)
O=c1c(-c2ccc(F)cc2)nc2cnc(N3CCOCC3)nc2n1C[C@H]1CCCO1,AC50,[1],inconclusive
same,AC50,[2],inconclusive
NCCCNC(=O)Cn1c(=O)c2c3c(sc2n(Cc2ccccc2)c1=O)CCCC3,IC50,[19],> 100 µM (active)
